# ChEMBL document CHEMBL3352029, “Ring fusion strategy for the synthesis of anthra[2,3-d]oxazole-2-thione-5,10-dione homologues as DNA topoisomerase inhibitors and as antitumor agents” (Eur J Med Chem, 2014)
# Activity calls are given as the source filed them. The calls are words filed in the database; no cut-off is given here.
# Legend:
# [1] = Cytotoxicity against human PC3 cells assessed as inhibition of cell growth after 48 hrs by sulforhodamine B assay; format: functional, cell-based; settings: PC-3, 48 h
# CCRF-CEM = assay: Cytotoxicity against human CCRF-CEM cells assessed as cell growth level at 10 uM after 48 hrs by sulforhodamine B assay; format: functional
# HL-60(TB) = assay: Cytotoxicity against human HL-60(TB) cells assessed as cell growth level at 10 uM after 48 hrs by sulforhodamine B assay; format: functional
# K562 = assay: Cytotoxicity against human K562 cells assessed as cell growth level at 10 uM after 48 hrs by sulforhodamine B assay; format: functional
# MOLT-4 = assay: Cytotoxicity against human MOLT4 cells assessed as cell growth level at 10 uM after 48 hrs by sulforhodamine B assay; format: functional
# RPMI-8226 = assay: Cytotoxicity against human RPMI8226 cells assessed as cell growth level at 10 uM after 48 hrs by sulforhodamine B assay; format: functional
# A549 = assay: Cytotoxicity against human A549/ATCC cells assessed as cell growth level at 10 uM after 48 hrs by sulforhodamine B assay; format: functional
# HOP-62 = assay: Cytotoxicity against human HOP62 cells assessed as cell growth level at 10 uM after 48 hrs by sulforhodamine B assay; format: functional
# HOP-92 = assay: Cytotoxicity against human HOP92 cells assessed as cell growth level at 10 uM after 48 hrs by sulforhodamine B assay; format: functional
# NCI-H226 = assay: Cytotoxicity against human NCI-H226 cells assessed as cell growth level at 10 uM after 48 hrs by sulforhodamine B assay; format: functional
# NCI-H23 = assay: Cytotoxicity against human NCI-H23 cells assessed as cell growth level at 10 uM after 48 hrs by sulforhodamine B assay; format: functional
# NCI-H322M = assay: Cytotoxicity against human NCI-H322M cells assessed as cell growth level at 10 uM after 48 hrs by sulforhodamine B assay; format: functional
# NCI-H460 = assay: Cytotoxicity against human NCI-H460 cells assessed as cell growth level at 10 uM after 48 hrs by sulforhodamine B assay; format: functional
# NCI-H522 = assay: Cytotoxicity against human NCI-H522 cells assessed as cell growth level at 10 uM after 48 hrs by sulforhodamine B assay; format: functional
# COLO 205 = assay: Cytotoxicity against human COLO205 cells assessed as cell growth level at 10 uM after 48 hrs by sulforhodamine B assay; format: functional
# HCC 2998 = assay: Cytotoxicity against human HCC2998 cells assessed as cell growth level at 10 uM after 48 hrs by sulforhodamine B assay; format: functional
# [2] = Cytotoxicity against human HCT116 cells assessed as cell growth level at 10 uM after 48 hrs by sulforhodamine B assay; format: functional, HCT-116
# [3] = Cytotoxicity against human HCT15 cells assessed as cell growth level at 10 uM after 48 hrs by sulforhodamine B assay; format: functional, HCT-15
# HT-29 = assay: Cytotoxicity against human HT-29 cells assessed as cell growth level at 10 uM after 48 hrs by sulforhodamine B assay; format: functional
# KM12 = assay: Cytotoxicity against human KM12 cells assessed as cell growth level at 10 uM after 48 hrs by sulforhodamine B assay; format: functional
# SW-620 = assay: Cytotoxicity against human SW620 cells assessed as cell growth level at 10 uM after 48 hrs by sulforhodamine B assay; format: functional
# SF-268 = assay: Cytotoxicity against human SF268 cells assessed as cell growth level at 10 uM after 48 hrs by sulforhodamine B assay; format: functional
# SF-295 = assay: Cytotoxicity against human SF295 cells assessed as cell growth level at 10 uM after 48 hrs by sulforhodamine B assay; format: functional
# SF-539 = assay: Cytotoxicity against human SF539 cells assessed as cell growth level at 10 uM after 48 hrs by sulforhodamine B assay; format: functional
# SNB-19 = assay: Cytotoxicity against human SNB19 cells assessed as cell growth level at 10 uM after 48 hrs by sulforhodamine B assay; format: functional
# SNB-75 = assay: Cytotoxicity against human SNB75 cells assessed as cell growth level at 10 uM after 48 hrs by sulforhodamine B assay; format: functional
# U-251 = assay: Cytotoxicity against human U251 cells assessed as cell growth level at 10 uM after 48 hrs by sulforhodamine B assay; format: functional
# LOX IMVI = assay: Cytotoxicity against human LOXIMVI cells assessed as cell growth level at 10 uM after 48 hrs by sulforhodamine B assay; format: functional
# Malme-3M = assay: Cytotoxicity against human MALME-3M cells assessed as cell growth level at 10 uM after 48 hrs by sulforhodamine B assay; format: functional
# M14 = assay: Cytotoxicity against human M14 cells assessed as cell growth level at 10 uM after 48 hrs by sulforhodamine B assay; format: functional
# MDA-MB-435 = assay: Cytotoxicity against human MDA-MB-435 cells assessed as cell growth level at 10 uM after 48 hrs by sulforhodamine B assay; format: functional
# SK-MEL-2 = assay: Cytotoxicity against human SK-MEL-2 cells assessed as cell growth level at 10 uM after 48 hrs by sulforhodamine B assay; format: functional
# SK-MEL-28 = assay: Cytotoxicity against human SK-MEL-28 cells assessed as cell growth level at 10 uM after 48 hrs by sulforhodamine B assay; format: functional
# SK-MEL-5 = assay: Cytotoxicity against human SK-MEL-5 cells assessed as cell growth level at 10 uM after 48 hrs by sulforhodamine B assay; format: functional
# [4] = Cytotoxicity against human UACC257 cells assessed as cell growth level at 10 uM after 48 hrs by sulforhodamine B assay; format: functional, UACC-257
# [5] = Cytotoxicity against human UACC62 cells assessed as cell growth level at 10 uM after 48 hrs by sulforhodamine B assay; format: functional, UACC-62
# IGROV-1 = assay: Cytotoxicity against human IGROV1 cells assessed as cell growth level at 10 uM after 48 hrs by sulforhodamine B assay; format: functional
# [6] = Cytotoxicity against human OVCAR3 cells assessed as cell growth level at 10 uM after 48 hrs by sulforhodamine B assay; format: functional, OVCAR-3
# [7] = Cytotoxicity against human OVCAR5 cells assessed as cell growth level at 10 uM after 48 hrs by sulforhodamine B assay; format: functional, OVCAR-5
# [8] = Cytotoxicity against human OVCAR8 cells assessed as cell growth level at 10 uM after 48 hrs by sulforhodamine B assay; format: functional, OVCAR-8
# [9] = Cytotoxicity against human NCI-ADR-RES cells assessed as cell growth level at 10 uM after 48 hrs by sulforhodamine B assay; format: functional
# [10] = Cytotoxicity against human SKOV3 cells assessed as cell growth level at 10 uM after 48 hrs by sulforhodamine B assay; format: functional, SK-OV-3
# 786-0 = assay: Cytotoxicity against human 786-0 cells assessed as cell growth level at 10 uM after 48 hrs by sulforhodamine B assay; format: functional
# A498 = assay: Cytotoxicity against human A498 cells assessed as cell growth level at 10 uM after 48 hrs by sulforhodamine B assay; format: functional
# ACHN = assay: Cytotoxicity against human ACHN cells assessed as cell growth level at 10 uM after 48 hrs by sulforhodamine B assay; format: functional
# CAKI-1 = assay: Cytotoxicity against human CAKI-1 cells assessed as cell growth level at 10 uM after 48 hrs by sulforhodamine B assay; format: functional
# RXF 393 = assay: Cytotoxicity against human RXF393 cells assessed as cell growth level at 10 uM after 48 hrs by sulforhodamine B assay; format: functional
# SN12C = assay: Cytotoxicity against human SN12C cells assessed as cell growth level at 10 uM after 48 hrs by sulforhodamine B assay; format: functional
# [11] = Cytotoxicity against human UO31 cells assessed as cell growth level at 10 uM after 48 hrs by sulforhodamine B assay; format: functional, UO-31
# [12] = Cytotoxicity against human PC3 cells assessed as cell growth level at 10 uM after 48 hrs by sulforhodamine B assay; format: functional, PC-3
# DU-145 = assay: Cytotoxicity against human DU145 cells assessed as cell growth level at 10 uM after 48 hrs by sulforhodamine B assay; format: functional
# MCF7 = assay: Cytotoxicity against human MCF7 cells assessed as cell growth level at 10 uM after 48 hrs by sulforhodamine B assay; format: functional
# MDA-MB-231 = assay: Cytotoxicity against human MDA-MB-231 cells assessed as cell growth level at 10 uM after 48 hrs by sulforhodamine B assay; format: functional
# [13] = Cytotoxicity against human Hs 578T cells assessed as cell growth level at 10 uM after 48 hrs by sulforhodamine B assay; format: functional
# BT-549 = assay: Cytotoxicity against human BT549 cells assessed as cell growth level at 10 uM after 48 hrs by sulforhodamine B assay; format: functional
# T47D = assay: Cytotoxicity against human T47D cells assessed as cell growth level at 10 uM after 48 hrs by sulforhodamine B assay; format: functional
# MDA-MB-468 = assay: Cytotoxicity against human MDA-MB-468 cells assessed as cell growth level at 10 uM after 48 hrs by sulforhodamine B assay; format: functional
# [14] = biological target: T1, DNA topoisomerase 1 (Homo sapiens) (UniProt P11387); assay: Inhibition of human recombinant DNA topoisomerase 1 assessed as reduction in relaxation of supercoiled pHOT DNA at 25 to 50 uM incubated for 45 mins by ethidium bromide staining based gel electrophoresis
# T1 sequence (whole entry): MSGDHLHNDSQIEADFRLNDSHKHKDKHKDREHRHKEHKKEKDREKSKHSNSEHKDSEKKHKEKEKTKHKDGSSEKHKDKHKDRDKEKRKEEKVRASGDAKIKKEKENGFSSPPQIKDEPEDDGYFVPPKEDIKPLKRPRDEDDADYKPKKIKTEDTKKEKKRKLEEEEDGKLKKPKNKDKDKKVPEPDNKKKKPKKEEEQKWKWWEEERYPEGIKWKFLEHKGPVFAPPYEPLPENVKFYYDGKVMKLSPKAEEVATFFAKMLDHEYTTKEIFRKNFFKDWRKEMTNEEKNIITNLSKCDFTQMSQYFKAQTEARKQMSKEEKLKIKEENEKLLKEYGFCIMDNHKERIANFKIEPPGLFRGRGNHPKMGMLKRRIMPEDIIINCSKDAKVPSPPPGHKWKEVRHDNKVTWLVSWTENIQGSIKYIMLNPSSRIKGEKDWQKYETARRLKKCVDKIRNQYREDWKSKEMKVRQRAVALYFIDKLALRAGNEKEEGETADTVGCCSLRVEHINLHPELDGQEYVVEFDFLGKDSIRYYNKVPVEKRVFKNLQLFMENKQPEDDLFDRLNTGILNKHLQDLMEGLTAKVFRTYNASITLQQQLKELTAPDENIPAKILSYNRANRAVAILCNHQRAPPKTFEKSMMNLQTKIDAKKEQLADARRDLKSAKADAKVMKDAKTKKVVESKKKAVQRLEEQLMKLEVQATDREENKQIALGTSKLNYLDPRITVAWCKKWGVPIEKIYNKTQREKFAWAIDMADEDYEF
smiles,measurement,setting,value
O=C(CCN1CCCC1)Nc1cc2c(cc1O)C(=O)c1ccccc1C2=O,IC50,[1],> 30 µM
same,Activity,CCRF-CEM,87.09%
same,Activity,HL-60(TB),103.96%
same,Activity,K562,106.34%
same,Activity,MOLT-4,114.86%
same,Activity,RPMI-8226,86.61%
same,Activity,A549,98.4%
same,Activity,HOP-62,98.3%
same,Activity,HOP-92,83.51%
same,Activity,NCI-H226,89.38%
same,Activity,NCI-H23,91.17%
same,Activity,NCI-H322M,108.8%
same,Activity,NCI-H460,101.03%
same,Activity,NCI-H522,89.35%
same,Activity,COLO 205,118.26%
same,Activity,HCC 2998,98.08%
same,Activity,[2],98.96%
same,Activity,[3],97.11%
same,Activity,HT-29,67.12%
same,Activity,KM12,106.65%
same,Activity,SW-620,106.36%
same,Activity,SF-268,97.79%
same,Activity,SF-295,93.19%
same,Activity,SF-539,98.8%
same,Activity,SNB-19,96.45%
same,Activity,SNB-75,89.48%
same,Activity,U-251,95.72%
same,Activity,LOX IMVI,107.45%
same,Activity,Malme-3M,142.32%
same,Activity,M14,96.96%
same,Activity,MDA-MB-435,103.97%
same,Activity,SK-MEL-2,102.06%
same,Activity,SK-MEL-28,104.99%
same,Activity,SK-MEL-5,102.47%
same,Activity,[4],113%
same,Activity,[5],94.37%
same,Activity,IGROV-1,112.79%
same,Activity,[6],108.53%
same,Activity,[7],100.56%
same,Activity,[8],100.18%
same,Activity,[9],103.64%
same,Activity,[10],104.33%
same,Activity,786-0,99.72%
same,Activity,A498,86.98%
same,Activity,ACHN,82.72%
same,Activity,CAKI-1,82.42%
same,Activity,RXF 393,103.62%
same,Activity,SN12C,100.6%
same,Activity,[11],79.74%
same,Activity,[12],91.56%
same,Activity,DU-145,105.86%
same,Activity,MCF7,56.43%
same,Activity,MDA-MB-231,92.22%
same,Activity,[13],97.73%
same,Activity,BT-549,96.56%
same,Activity,T47D,74.5%
same,Activity,MDA-MB-468,93.65%
O=C(CCN1CCCCC1)Nc1cc2c(cc1O)C(=O)c1ccccc1C2=O,IC50,[1],> 30 µM
CCCCSc1nc2cc3c(cc2o1)C(=O)c1ccccc1C3=O,IC50,[1],> 30 µM
O=C(CN1CCOCC1)Nc1cc2c(cc1O)C(=O)c1ccccc1C2=O,IC50,[1],> 30 µM
O=C(CCl)Nc1cc2c(cc1O)C(=O)c1ccccc1C2=O,IC50,[1],23.4 µM
O=C1c2ccccc2C(=O)c2cc3oc(=S)[nH]c3cc21,IC50,[1],> 30 µM
same,inhibition,[14],inactive
